pIC50: −log10 of the molar value.

This passage reports IC50 results from patent publication US10980809B2, “Urea-substituted aromatic ring-linked dioxane-quinazoline and -linked dioxane-quinoline compounds, preparation method therefor and use thereof” (BEIJING SCITECH-MQ PHARMACEUTICALS LIMITED, priority 2017, dated 2021).

The target in this assay is VEGFR-2 kinase (Homo sapiens (Human), UniProt P35968). Nature of the assay: Test of small molecule compounds for inhibiting the activity of VEGFR-2 kinase. Type of assay: biochemical. The settings on record: class symbols A-D. The protocol: Test of Small Molecule Compounds for Inhibiting the Activity of VEGFR-2 Kinase
Chain of VEGFR-2 kinase (P35968 20-1356): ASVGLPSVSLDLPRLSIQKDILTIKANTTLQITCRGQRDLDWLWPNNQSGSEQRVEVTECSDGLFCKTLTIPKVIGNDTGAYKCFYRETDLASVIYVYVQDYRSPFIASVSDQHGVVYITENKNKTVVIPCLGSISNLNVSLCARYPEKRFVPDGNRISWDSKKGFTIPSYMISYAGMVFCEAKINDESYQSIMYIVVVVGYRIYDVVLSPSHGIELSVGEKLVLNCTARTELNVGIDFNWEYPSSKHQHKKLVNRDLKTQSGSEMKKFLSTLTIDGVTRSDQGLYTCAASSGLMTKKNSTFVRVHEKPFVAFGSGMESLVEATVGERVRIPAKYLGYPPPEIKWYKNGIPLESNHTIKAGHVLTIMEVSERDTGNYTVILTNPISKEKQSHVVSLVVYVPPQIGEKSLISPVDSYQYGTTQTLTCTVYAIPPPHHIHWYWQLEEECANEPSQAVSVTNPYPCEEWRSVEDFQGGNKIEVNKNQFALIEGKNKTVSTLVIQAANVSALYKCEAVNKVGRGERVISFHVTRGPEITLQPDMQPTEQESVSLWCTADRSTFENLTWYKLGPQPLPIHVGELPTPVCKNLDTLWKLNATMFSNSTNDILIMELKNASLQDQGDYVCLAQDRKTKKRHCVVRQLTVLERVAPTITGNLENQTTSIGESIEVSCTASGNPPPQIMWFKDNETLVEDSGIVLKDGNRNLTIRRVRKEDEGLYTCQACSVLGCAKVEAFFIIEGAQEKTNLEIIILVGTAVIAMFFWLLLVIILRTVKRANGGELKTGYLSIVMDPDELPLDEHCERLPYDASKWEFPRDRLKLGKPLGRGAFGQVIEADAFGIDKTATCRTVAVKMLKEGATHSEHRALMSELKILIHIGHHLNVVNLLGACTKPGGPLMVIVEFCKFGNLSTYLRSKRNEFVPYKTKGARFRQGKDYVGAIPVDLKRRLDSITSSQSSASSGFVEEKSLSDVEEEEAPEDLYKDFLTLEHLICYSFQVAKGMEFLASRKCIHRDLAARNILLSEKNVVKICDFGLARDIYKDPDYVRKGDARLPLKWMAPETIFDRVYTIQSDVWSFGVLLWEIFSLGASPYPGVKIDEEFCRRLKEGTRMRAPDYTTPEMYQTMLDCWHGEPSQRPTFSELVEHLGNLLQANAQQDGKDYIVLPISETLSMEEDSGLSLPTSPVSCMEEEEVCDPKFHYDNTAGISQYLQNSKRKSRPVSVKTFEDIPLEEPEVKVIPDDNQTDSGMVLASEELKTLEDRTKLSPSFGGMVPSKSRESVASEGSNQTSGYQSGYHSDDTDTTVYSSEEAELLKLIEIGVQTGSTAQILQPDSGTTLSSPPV
The test was carried out as follows:
2. 2.5 μl of the gradient-diluted compounds was taken with a transfer pipette to a 384-well plate,
3. Addition of enzyme: 5 μl of 2×VEGFR-2 kinase was taken with a transfer pipette to the corresponding reaction well of the 384-well plate, which was mixed and pre-reacted at room temperature for 30 min,
5. Negative control: 2.5 μl/well 4× substrate/ATP Mix and 7.5 μl 1× Kinase Assay Buffer were added to the wells of the 384-well plate,
Positive control: 2.5 μl/well 4× substrate/ATP Mix, 2.5 μl/well 1× Kinase Assay Buffer containing 4% DMSO, and 5 μl/well 2×VEGFR-2 solution were added to the 384-well plate. The final concentration of DMSO in the reaction system is […],
6. The mixture was mixed well and then centrifuged and reacted at room temperature in dark for 60 min,
9. The 384-well plate was placed into the Envision plate reader and the signal was detected using the appropriate program,
Usually pIC50 stands for the negative decadic logarithm of the IC50, by convention in mol/L. A higher pIC50 goes with a low IC50. `COc1cc2ncnc(Nc3ccc(NC(=O)NC4CC4)cc3)c2c2c1OCCO2` [Example 1, 1-(4-((5-methoxy-2,3-dihydro-[1,4]dioxino[2,3-f]quinazolin-10-yl)amino)phenyl)-3-cyclopropylurea] gave a pIC50 of 6.30 to 7.30.

The molecule `COc1cc2ncnc(Nc3ccc(NC(=O)NC4CC4)c(Cl)c3)c2c2c1OCCO2` [Example 2, 1-(2-chloro-4-((5-methoxy-2,3-dihydro-[1,4]dioxino[2,3-f]quinazolin-10-yl)amino)phenyl)-3-cyclopropylurea] had a pIC50 of over 7.30.

`COc1cccc(NC(=O)Nc2ccc(Nc3ncnc4cc(OC)c5c(c34)OCCO5)cc2)c1` [Example 3, 1-(4-((5-methoxy-2,3-dihydro-[1,4]dioxino[2,3-f]quinazolin-10-yl)amino)phenyl)-3-(3-methoxyphenyl)urea] showed a pIC50 of 6.30 to 7.30.

`COc1cccc(NC(=O)Nc2ccc(Nc3ncnc4cc(OC)c5c(c34)OCCO5)cc2Cl)c1` [Example 4, 1-(2-chloro-4-((5-methoxy-2,3-dihydro-[1,4]dioxino[2,3-f]quinazolin-10-yl)amino)phenyl)-3-(3-methoxyphenyl)urea] showed a pIC50 of over 7.30.

In the case of `COc1cc2ncnc(Nc3ccc(NC(=O)Nc4ccccn4)c(Cl)c3)c2c2c1OCCO2` [Example 5, 1-(2-chloro-4-((5-methoxy-2,3-dihydro-[1,4]dioxino[2,3-f]quinazolin-10-yl)amino)phenyl)-3-(pyridin-2-yl)urea], the pIC50 is under 5.30.

Molecule `COc1cc2ncnc(Nc3ccc(NC(=O)Nc4ccccc4)c(Cl)c3)c2c2c1OCCO2` [Example 6, 1-(2-chloro-4-((5-methoxy-2,3-dihydro-[1,4]dioxino[2,3-f]quinazolin-10-yl)amino)phenyl)-3-phenylurea] had a pIC50 of 6.30 to 7.30.

As for `COc1cc2ncnc(Nc3ccc(NC(=O)Nc4ccc(F)cc4)c(Cl)c3)c2c2c1OCCO2` [Example 7, 1-(2-chloro-4-((5-methoxy-2,3-dihydro-[1,4]dioxino[2,3-f]quinazolin-10-yl)amino)phenyl)-3-(4-fluorophenyl)urea], the pIC50 is over 7.30.

`COc1cc2ncnc(Nc3ccc(NC(=O)Nc4cc(C)no4)c(Cl)c3)c2c2c1OCCO2` [Example 8, 1-(2-chloro-4-((5-methoxy-2,3-dihydro-[1,4]dioxino[2,3-f]quinazolin-10-yl)amino)phenyl)-3-(3-methylisoxazol-5-yl)urea] showed a pIC50 of 6.30 to 7.30.

Molecule `COc1cc2ncnc(Nc3ccc(NC(=O)NC(C)C)c(Cl)c3)c2c2c1OCCO2` [Example 9, 1-(2-chloro-4-((5-methoxy-2,3-dihydro-[1,4]dioxino[2,3-f]quinazolin-10-yl)amino)phenyl)-3-isopropylurea] had a pIC50 of 6.30 to 7.30.

Consider `COc1cc(NC(=O)Nc2ccc(Nc3ncnc4cc(OC)c5c(c34)OCCO5)cc2Cl)ccn1` [Example 10, 1-(2-chloro-4-((5-methoxy-2,3-dihydro-[1,4]dioxino[2,3-f]quinazolin-10-yl)amino)phenyl)-3-(2-methoxypyridin-4-yl)urea], for which the pIC50 was over 7.30.

In turn, `COc1cc2ncnc(Nc3ccc(NC(=O)Nc4ccc(C(F)(F)F)cc4F)c(Cl)c3)c2c2c1OCCO2` [Example 12, 1-(2-chloro-4-((5-methoxy-2,3-dihydro-[1,4]dioxino[2,3-f]quinazolin-10-yl)amino)phenyl)-3-(2-fluoro-4-(trifluoromethyl)phenyl)urea] had a pIC50 of over 7.30.

With `COc1cc2ncnc(Nc3ccc(NC(=O)Nc4ccc(Oc5ccccc5)cc4)c(Cl)c3)c2c2c1OCCO2` [Example 13, 1-(2-chloro-4-((5-methoxy-2,3-dihydro-[1,4]dioxino[2,3-f]quinazolin-10-yl)amino)phenyl)-3-(4-(phenoxy)phenyl)urea], the pIC50 was under 5.30.

The molecule `COc1cc2ncnc(Oc3ccc(NC(=O)Nc4ccccc4)c(Cl)c3)c2c2c1OCCO2` [Example 14, 1-(2-chloro-4-((5-methoxy-2,3-dihydro-[1,4]dioxino[2,3-f]quinazolin-10-yl)oxy)phenyl)-3-phenylurea] had a pIC50 of over 7.30.

Regarding `COc1cc2ncnc(Oc3ccc(NC(=O)NC(C)C)c(Cl)c3)c2c2c1OCCO2` [Example 15, 1-(2-chloro-4-((5-methoxy-2,3-dihydro-[1,4]dioxino[2,3-f]quinazolin-10-yl)oxy)phenyl)-3-isopropylurea], the pIC50 is over 7.30.

Regarding `COc1cc2ncnc(Oc3ccc(NC(=O)Nc4ccc(F)cc4)c(Cl)c3)c2c2c1OCCO2` [Example 16, 1-(2-chloro-4-((5-methoxy-2,3-dihydro-[1,4]dioxino[2,3-f]quinazolin-10-yl)oxy)phenyl)-3-(4-fluorophenyl)urea], the pIC50 is over 7.30.

The molecule `COc1cc2ncnc(Oc3ccc(NC(=O)Nc4ccc(F)cc4F)c(F)c3)c2c2c1OCCO2` [Example 21, 1-(2,4-difluorophenyl)-3-(2-fluoro-4-((5-methoxy-2,3-dihydro-[1,4]dioxino[2,3-f]quinazolin-10-yl)oxy)phenyl)urea] showed a pIC50 of over 7.30.

Consider `COc1cc2ncnc(Oc3ccc(NC(=O)NC4CC4)c(Cl)c3)c2c2c1OCCO2` [Example 22, 1-(2-chloro-4-((5-methoxy-2,3-dihydro-[1,4]dioxino[2,3-f]quinazolin-10-yl)oxy)phenyl)-3-cyclopropylurea], for which the negative logarithm of the IC50 (pIC50) is over 7.30.

As for `COc1cccc(NC(=O)Nc2ccc(Oc3ncnc4cc(OC)c5c(c34)OCCO5)c(Cl)c2)c1` [Example 24, 1-(3-chloro-4-((5-methoxy-2,3-dihydro-[1,4]dioxino[2,3-f]quinazolin-10-yl)oxy)phenyl)-3-(3-methoxyphenyl)urea], the negative-log IC50 (pIC50) is over 7.30.

Turning to `COc1cc(NC(=O)Nc2ccc(Oc3ncnc4cc(OC)c5c(c34)OCCO5)c(Cl)c2)ccn1` [Example 26, 1-(3-chloro-4-((5-methoxy-2,3-dihydro-[1,4]dioxino[2,3-f]quinazolin-10-yl)oxy)phenyl)-3-(2-methoxypyridin-4-yl)urea], the pIC50 was over 7.30.

`COc1cc2ncnc(Nc3ccc(NC(=O)NC4CCC4)c(Cl)c3)c2c2c1OCCO2` [Example 27, 1-(2-chloro-4-((5-methoxy-2,3-dihydro-[1,4]dioxino[2,3-f]quinazolin-10-yl)amino)phenyl)-3-cyclobutylurea] gave a pIC50 of over 7.30.

`COc1cc2ncnc(Nc3ccc(NC(=O)NC4CCCC4)c(Cl)c3)c2c2c1OCCO2` [Example 28, 1-(2-chloro-4-((5-methoxy-2,3-dihydro-[1,4]dioxino[2,3-f]quinazolin-10-yl)amino)phenyl)-3-cyclopentylurea]: the negative-log IC50 (pIC50) was 6.30 to 7.30.

Molecule `COc1cc2ncnc(Nc3ccc(NC(=O)NC4CCCCC4)c(Cl)c3)c2c2c1OCCO2` [Example 29, 1-(2-chloro-4-((5-methoxy-2,3-dihydro-[1,4]dioxino[2,3-f]quinazolin-10-yl)amino)phenyl)-3-cyclohexylurea] showed a pIC50 of 5.30 to 6.30.

With `COc1cc2ncnc(Nc3ccc(NC(=O)NCCC(C)C)c(Cl)c3)c2c2c1OCCO2` [Example 30, 1-(2-chloro-4-((5-methoxy-2,3-dihydro-[1,4]dioxino[2,3-f]quinazolin-10-yl)amino)phenyl)-3-isopentylurea], the pIC50 is over 7.30.

As for `O=C(Nc1ccc(Oc2ncnc3cc(OCCCN4CCOCC4)c4c(c23)OCCO4)cc1)Nc1cccc2ccccc12` [Example 31, 1-(4-((5-(3-morpholinopropoxy)-2,3-dihydro-[1,4]dioxino[2,3-f]quinazolin-10-yl)oxy)phenyl)-3-(naphthalen-1-yl)urea], the negative logarithm of the IC50 (pIC50) was over 7.30.
